Patent US20060035365A1, “Method for identifying cellular growth inhibitors” (priority 2002, published 2006)

What was measured:
[1] = system: S. aureus strain SafabF/GFP; assay: Liquid GFP reporter assay for fabF antisense revertants (Relative Fluorescence Index); format: cell-based, Staphylococcus aureus; settings: for change of RFI with increasing xylose concentration: 0, 7 and 14 mM xylose, drug concentrations approximating 50% inhibition of growth in no-xylose cells, 16 hours
From the text: The green fluorescent protein (GFP) reporter gene was used to identify fabF antisense revertants in liquid culture by the following method: S. aureus containing a plasmid encoding the antisense fabF DNA was used to develop an inducible GFP reporter system, where the GFP gene is transcriptionally silent until the fabF antisense containing plasmid DNA is deleted or rearranged. A plasmid, pM310, was constructed that consists of the fabF antisense vector (Forsyth et al, 2002), with a tetracycline repressor gene and its promoter (Geissendorfer et al., Appl. Microbiol. Biotechnol 1990, 33: 657-663) inserted downstream of the fabP antisense DNA. A second plasmid, pM302, was constructed that consists of the E. coli vector pUC19 (Gibco BRL) joined to the S. aureus vector pUB110 (ATCC 37015), through the EcoR1 and AatII restriction sites. At the pUC19 multicloning site, a GFP gene was inserted into the BamH1 and SalI restriction sites and a tetracycline operator containing promoter (Geissendorfer et al, 1990) was cloned into the EcoR1 and BamH1 sites. A S. aureus strain, SafabF/GFP, was constructed that contained both plasmids pM310 and pM302 and was resistant to chloramphenicol and kanamycin. SafabF/GFP was sensitive to xylose induction resulting in an increased sensitivity to cerulenin. In the presence of cerulenin, resistant revertants will be selected for, which have deleted the antisense vector, and along with this deletion, lost the tetracycline repressor gene. […] Revertants can be measured as a function of fluorescent readout relative to cell number.
To quantitatively measure the fabF revertants, a liquid assay was developed, where various concentrations of xylose were tested with various concentrations of the following test compounds: cerulenin, thiostrepton and ampicillin. […] A 96-well plate was used to measure growth of the culture and final absorbance after 16 hours of incubation at 37° C. […] The final absorbance as read at 590 nm (A590) and fluorescence of the GFP was measured by excitation at 485 nm wavelength and emission wavelength at 535 nm (E535), using a Tecan Spectrafluor Plus.
To detect a specific GFP response in the presence of a fabF selective inhibitor, cerulenin, the Relative Fluorescence Index (RFI) was calculated for each drug treatment and for each xylose treatment. The RFI is defined as E535/A590 ratio, normalized to the corresponding ratio calculated on no-xylose control cells within each drug test group. For instance, with 15 μg/ml cerulenin treatment, the E535/A590 ratio was calculated for 0, 7 and 14 mM xylose treated cells, and the ratio for each were divided by the E535/A590 ratio from the no-xylose treated cells. […]

[2] = system: S. aureus containing S1-1941, a plasmid expressing a xylose-inducible fabF anti-sense RNA; assay: Agar assay for fabF-acting substances: revertant colonies in the zone of inhibition; format: cell-based, Staphylococcus aureus; settings: for appearance of revertant colonies / zone of growth inhibition on assay plate: 10 μL sample per well, thiotetramycin 1 mg/mL in DMSO, cerulenin 20 μg/mL in DMSO, kanamycin 100 μg/mL in water, xylose 23.6 mM, overnight 37° C., visual inspection
Method: S. aureus containing S1-1941, a plasmid expressing a xylose-inducible fabF anti-sense RNA (described in WO 00/44906 and in Forsyth et al., Mole. Microbiol. 2002, 43: 1387-1400), are inoculated into an LB broth culture medium supplemented with […] of chloramphenicol, and grown overnight at 37° C. with shaking (225 rpm). The culture is then diluted in the LB medium to a final optical density (λ=600 nm) of 0.3. Diluted cells (750 μL) are then added to a molten LB-agar medium (30 mL) supplemented with xylose (23.6 mM) and glucose (0.19 g/100 mL) and equilibrated at 48° C. The molten mixture is briefly mixed and is then poured onto sterile disposable polystyrene 86×128 mm dishes (NUNC Cat. No. 242811), after which a TSP (=transferable solid phase screening system) casting tray (NUNC Cat. No. 445497) is placed on top to cast wells. The dishes are allowed to cool down to room temperature for about 15 minutes and are then stored for no more than 2 days at 4° C. until ready for sample dispensing. Samples (10 μL) of one or more test substances (500 μM) and samples of controls, each dissolved in 100% DMSO, are subsequently dispensed into wells and the plates incubated overnight at 37° C. The incubated plates are then inspected visually for the appearance of revertant colonies to determine whether the test substance(s) act at the fabF protein.
The fabF-targeting control will produce revertant colonies in and around a zone of inhibition, and the non-fabF targeting control will produce a clear zone of inhibition (i.e., devoid of revertant colonies). The zones of inhibition of the test substances are compared to those of the controls to screen for fabF-acting substances.
The assay protocol set forth in Part A was employed to test whether thiotetramycin is a fabF-acting antibacterial agent. A 10 μL sample of thiotetramycin dissolved in 100% DMSO (1 mg/mL) was dispensed into one well of the plate. In addition, a 10 μL sample of cerulenin in 100% DMSO (20 μg/mL) and a 10 μL sample of kanamycin in water (100 μg/mL) were respectively dispensed into two wells as controls. After incubation as described in Part A, the plates were inspected visually for zones of bacterial growth.

Compound | change of RFI with increasing xylose concentration [1] | maximum change of Relative Fluorescence Index (RFI) ([1]; 14 mM xylose and 15 μg/ml cerulenin, 16 hours at 37° C., normalized to no-xylose control cells) | appearance of revertant colonies / zone of growth inhibition on assay plate [2] | appearance of revertant colonies / zone of growth inhibition on assay plate ([2]; listed as Cerulenin) | appearance of revertant colonies / zone of growth inhibition on assay plate ([2]; listed as Thiotetramycin) | conclusion whether test substance is a fabF-acting antibacterial agent ([2]; from comparison with cerulenin and kanamycin controls)
CC1(C)S[C@@H]2[C@H](NC(=O)[C@H](N)c3ccccc3)C(=O)N2[C@H]1C(=O)O [ampicillin] | No increase in RFI | – | – | – | – | –
C/C=C/C/C=C/CCC(=O)[C@H]1O[C@H]1C(N)=O [cerulenin] | RFI increased with increasing xylose concentration | 9 fold | several visually observable revertant bacterial colonies | growth of revertant colonies in and around a zone of growth inhibition | – | –
C=C(NC(=O)C(=C)NC(=O)c1csc(C2=N[C@@H]3c4csc(n4)[C@H]4NC(=O)c5csc(n5)[C@H]([C@](C)(O)[C@@H](C)O)NC(=O)[C@H]5CSC(=N5)/C(=C/C)NC(=O)[C@H]([C@@H](C)O)NC(=O)c5csc(n5)[C@]3(CC2)NC(=O)[C@H](C)NC(=O)C(=C)NC(=O)[C@H](C)NC(=O)[C@H]([C@@H](C)CC)N[C@@H]2C=Cc3c([C@H](C)O)cc(nc3[C@H]2O)C(=O)O[C@@H]4C)n1)C(N)=O [thiostrepton] | No increase in RFI | – | – | – | – | –
thiotetramycin | – | – | several visually observable revertant bacterial colonies | – | growth of revertant colonies which appear as small white foci of growth in and around a zone of growth inhibition | selectively targets the fabF protein
